Experimental findings from US20070066580A1, “Novel aldosterone antagonists and uses thereof” (Recordati Ireland Limited, priority 2005, published 2007) are described below.

The test addresses T1, aldosterone receptor (Rattus norvegicus, UniProt P22199).
T1 construct: from tissue; host or cells: whole animal: adrenalectomised male Sprague-Dawley rats
T1 sequence (P22199 1-981): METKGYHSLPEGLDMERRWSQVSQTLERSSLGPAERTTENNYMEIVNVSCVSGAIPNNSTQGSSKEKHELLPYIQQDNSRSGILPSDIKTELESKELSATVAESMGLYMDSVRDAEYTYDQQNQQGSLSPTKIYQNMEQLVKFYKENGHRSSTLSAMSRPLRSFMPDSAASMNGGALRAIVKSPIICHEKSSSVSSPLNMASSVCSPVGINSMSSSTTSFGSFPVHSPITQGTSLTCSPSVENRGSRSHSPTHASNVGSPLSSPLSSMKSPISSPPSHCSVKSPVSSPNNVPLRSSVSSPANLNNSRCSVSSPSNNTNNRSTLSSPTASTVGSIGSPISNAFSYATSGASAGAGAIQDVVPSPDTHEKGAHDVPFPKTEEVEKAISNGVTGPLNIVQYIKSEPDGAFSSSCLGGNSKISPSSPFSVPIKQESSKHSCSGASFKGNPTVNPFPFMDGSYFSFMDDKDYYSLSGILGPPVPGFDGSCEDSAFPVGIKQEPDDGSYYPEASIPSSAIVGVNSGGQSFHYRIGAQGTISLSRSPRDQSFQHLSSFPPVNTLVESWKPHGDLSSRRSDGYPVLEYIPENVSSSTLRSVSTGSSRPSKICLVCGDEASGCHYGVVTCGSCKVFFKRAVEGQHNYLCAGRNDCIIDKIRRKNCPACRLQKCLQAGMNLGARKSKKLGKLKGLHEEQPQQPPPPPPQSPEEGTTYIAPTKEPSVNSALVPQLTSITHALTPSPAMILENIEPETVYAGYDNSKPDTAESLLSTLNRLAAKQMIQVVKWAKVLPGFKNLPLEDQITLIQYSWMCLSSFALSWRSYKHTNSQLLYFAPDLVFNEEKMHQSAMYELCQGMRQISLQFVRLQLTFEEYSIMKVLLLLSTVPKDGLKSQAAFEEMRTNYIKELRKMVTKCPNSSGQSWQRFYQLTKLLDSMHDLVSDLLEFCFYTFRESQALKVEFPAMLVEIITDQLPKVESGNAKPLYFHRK
Description: Kagawa model, urinary Na+/K+ ratio in adrenalectomised rats given aldosterone. It is filed as in vivo. Conditions: adrenalectomized rats, oral gavage, aldosterone 3 μg/animal s.c. An excerpt: To evaluate the in vivo activity of test compounds as aldosterone receptor antagonists, the Kagawa model was used, with some modifications. The original model first described by Kagawa (Endocrinology 1960; 67:125-131) has been widely utilised and reported in several published papers.
Bilateral adrenalectomised male Spague-Dawley rats aging approximately 5 weeks and weighing between 150 and 170 g at the time of surgery were obtained from Charles River (UK) Ltd., Margate, Kent. Following adrenalectomy, animals were maintained with standard diet and 0.9% (w/v) saline to drink. Saline replaces sodium ions lost due to the absence of the adrenal glands.
The animals were maintained for three days in standard condition and were trained in metabolic cages on one occasion prior to the test day for approximately 5 hours.
Food was withheld from animals overnight prior to dosing. Saline was available ad libitum.
Approximately 2 hours before dosing, saline was removed from the animals to ensure similar hydration levels. […]
The cumulative urine volume was measured and collected for analysis at 0-3 and 3-6 hours post-aldosterone. Urine was analysed for urinary sodium and potassium concentration. […]
Mean Na^+:K^+ ratios from each group were calculated. […]
The data were analysed using one-way Analysis of Variance (ANOVA). […]

For `CCS[C@@H]1CC2=CC(=O)CC[C@]2(C)C2=CC[C@@]3(C)C(CC[C@@]34CCC(=O)O4)C21` (stereo partly shown) [Example 13], the “urinary Na+/K+ ratio relative to animals only receiving aldosterone” value is “statistically significant increase”.
